In patent US8106225B2, “Methods of preparing substituted tetracyclines with transition metal-based chemistries” (Trustees of Tufts College, priority 1999, dated 2012):

Legend:
Test in all cases: Antibacterial activity in vitro, MIC by broth dilution
Format in all cases: cell-based
[1] = test system: S. aureus MRSA5 Tc^r; parameters: unit not given here; conditions: S. aureus MRSA5, tetracycline resistant, 18 hrs
Experimental: (§1) Various compounds made in accordance with the invention were evaluated for anti-bacterial activity in vitro as follows. The minimum inhibitory concentration, the lowest concentration of drug that inhibits bacterial growth at 18 hrs at their appropriate temperature, is determined by the broth dilution method using L-broth or Mueller-Hinton broth. The Mueller-Hinton broth was cation-adjusted accordingly and all bacteriological methods were performed as was described by Waitz, J. A., National Commission for Clinical Laboratory Standards Document M7-A2, vol. 10, no. 8, pp. 13-20, 2nd edition, Villanova, Pa. (1990). The organisms tested represent gram-positive and gram-negative bacterial species that are susceptible to tetracyclines or are resistant to tetracyclines due to the ability to efflux tetracyclines or which confer resistance by ribosomal protection mechanisms. The clinical strains used are either susceptible to tetracyclines or are resistant to them by either drug efflux or ribosomal protection.

[2] = test system: E. coli ML308-225 Tc^s; parameters: unit not given here; conditions: E. coli ML308-225, tetracycline susceptible, 18 hrs
Experimental: as §1

[3] = test system: E. coli D1-299 Tc^r; parameters: unit not given here; conditions: E. coli D1-299, tetracycline resistant, 18 hrs
Experimental: as §1

[4] = test system: E. hirae ATCC9790 Tc^s; parameters: unit not given here; conditions: E. hirae ATCC9790, tetracycline susceptible, 18 hrs
Experimental: as §1

[5] = test system: S. warnerii Tc^r ATCC12715; parameters: unit not given here; conditions: S. warnerii ATCC12715, tetracycline resistant, 18 hrs
Experimental: as §1

[6] = test system: E. coli D1-209 Tc^r; parameters: unit not given here; conditions: E. coli D1-209, tetracycline resistant, 18 hrs
Experimental: as §1

[7] = test system: E. coli D31m4 Tc^s; conditions: E. coli D31m4, tetracycline susceptible, 18 hrs
Experimental: as §1

[8] = test system: E. hirae 9790 with pMV158 Tc^r; conditions: E. hirae 9790 with pMV158, tetracycline resistant, 18 hrs
Experimental: as §1

[9] = test system: S. aureus RN4250 Tc^r; conditions: S. aureus RN4250, tetracycline resistant, 18 hrs
Experimental: as §1

[10] = test system: E. hirae 9790 with pAM211 Tc^r; conditions: E. hirae 9790 with pAM211, tetracycline resistant, 18 hrs
Experimental: as §1

[11] = test system: S. aureus RN450 Tc^s; conditions: S. aureus RN450, tetracycline susceptible, 18 hrs
Experimental: as §1

[12] = test system: E. coli D 31m4 pHCM1 Tc^r; conditions: E. coli D 31m4 pHCM1, tetracycline resistant, 18 hrs
Experimental: as §1

Row | SMILES | Antibacterial Activity (minimum inhibitory concentration) [1] | Antibacterial Activity (minimum inhibitory concentration) [2] | Antibacterial Activity (minimum inhibitory concentration) [3] | Antibacterial Activity (minimum inhibitory concentration) [4] | Antibacterial Activity (minimum inhibitory concentration) [5] | Antibacterial Activity (minimum inhibitory concentration) [6] | Antibacterial Activity (minimum inhibitory concentration) [7] | Antibacterial Activity (minimum inhibitory concentration) [8] | Antibacterial Activity (minimum inhibitory concentration) [9] | Antibacterial Activity (minimum inhibitory concentration) [10] | Antibacterial Activity (minimum inhibitory concentration) [11] | Antibacterial Activity (minimum inhibitory concentration) [12]
1 | CC1c2ccc(/C=C/C(=O)O)c(O)c2C(=O)C2=C(O)C3(O)C(=O)C(C(N)=O)=C(O)[C@@H](N(C)C)C3C(O)C21 (stereo partly drawn) [D, [4S-(4a,12aα)]-9-[3′-(E)-propenoic acid]-4-(dimethylamino)-1,4,4a,5,5a,6,11,12a-octahydro-3,5,10,12,12a-pentahydroxy-6-methyl-1,11-dioxo-2-naphthacenecarboxamide] | >50 | 25 | >50 | 3.12 | >50 | >50 | >50 | 12.5 | >50 | >50 | 3.12 | >50
2 | C[C@H]1c2cccc(O)c2C(=O)C2=C(O)[C@]3(O)C(=O)C(C(N)=O)=C(O)[C@@H](N(C)C)[C@@H]3[C@@H](O)[C@@H]21 [Doxy, [4S-(4a,12aα)]-4-(dimethylamino)-1,4,4a,5,5a,6,11,12a-octahydro-3,5,10,12,12a-pentahydroxy-6-methyl-1,11-dioxo-2-naphthacenecarboxamide, reference compound] | 6.25 | 0.78 | 25 | 0.195 | 50 | 50 | 1.56 | – | 25 | – | <0.098 | 25
3 | CCCCOC(=O)/C=C/c1ccc2c(c1O)C(=O)C1=C(O)C3(O)C(=O)C(C(N)=O)=C(O)[C@@H](N(C)C)C3C(O)C1C2C (stereo partly drawn) [E, [4S-(4a,12aα)]-9-[3′-(E)-butylpropenoate]-4-(dimethylamino)-1,4,4a,5,5a,6,11,12a-octahydro-3,5,10,12,12a-pentahydroxy-6-methyl-1,11-dioxo-2-naphthacenecarboxamide] | 0.39 | 6.25 | >50 | 3.12 | 6.25 | >50 | – | – | – | – | 0.78 | –
4 | CCCCOC(=O)/C=C/c1cc(N(C)C)c2c(c1O)C(=O)C1=C(O)C3(O)C(=O)C(C(N)=O)=C(O)C(N(C)C)C3CC1C2 (stereo not drawn) [F, [4S-(4a,12aα)]-9-[3′-(E)-butylpropenoate]-4,7-Bis(dimethylamino)-1,4,4a,5,5a,6,11,12a-octahydro-3,10,12,12a-tetrahydroxy-1,11-dioxo-2-naphthacenecarboxamide] | 3.12 | >50 | >50 | 3.12 | 3.12 | >50 | 3.12 | – | – | – | 1.56 | 6.25
5 | CN(C)C1C(O)=C(C(N)=O)C(=O)C2(O)C(O)=C3C(=O)c4c(O)ccc(-c5ccc(Cl)cc5)c4CC3CC12 (centres unmarked) [G] | 0.195 | >50 | >50 | ≦0.098 | ≦0.098 | >50 | 0.78 | ≦0.098 | ≦0.098 | ≦0.098 | ≦0.098 | 0.78
6 | CN(C)C1C(O)=C(C(N)=O)C(=O)C2(O)C(O)=C3C(=O)c4c(O)c(-c5ccccc5)cc(-c5ccccc5)c4CC3CC12 (stereo not drawn) [H, [4S-(4a,12aα)]-7-phenyl-9-phenyl-4-(dimethylamino)-1,4,4a,5,5a,6,11,12a-octahydro-3,10,12,12a-tetrahydroxy-1,11-dioxo-2-naphthacenecarboxamide] | 0.78 | >50 | >50 | 0.78 | 0.78 | >50 | 1.56 | 0.39 | 0.78 | – | 1.56 | –
7 | Cc1ccc(C=C2c3cccc(O)c3C(=O)C3=C(O)C4(O)C(=O)C(C(N)=O)=C(O)C(N(C)C)C4C(O)C23)cc1 (stereo not drawn) [I, [4S-(4a,12aα)]-13-(4′-methylphenyl)-4-(dimethylamino)-1,4,4a,5,5a,6,11,12a-octahydro-3,5,10,12,12a-pentahydroxy-6-methylene-1,11-dioxo-2-naphthacenecarboxamide] | 6.25 | >50 | >50 | 0.39 | 12.5 | >50 | – | 3.12 | – | – | ≦0.098 | 25
8 | CN(C)[C@@H]1C(O)=C(C(N)=O)C(=O)C2(O)C(O)=C3C(=O)c4c(O)cccc4C(=Cc4cccc(C(=O)O)c4)C3C(O)C12 (stereo partly drawn) [J, [4S-(4a,12aα)]-13-(3′-carboxyphenyl)-4-(dimethylamino)-1,4,4a,5,5a,6,11,12a-octahydro-3,5,10,12,12a-pentahydroxy-6-methylene-1,11-dioxo-2-naphthacenecarboxamide] | >50 | >50 | >50 | 3.12 | >50 | >50 | >50 | >50 | >50 | >50 | 0.39 | >50
9 | CCOc1ccc(C=C2c3cccc(O)c3C(=O)C3=C(O)C4(O)C(=O)C(C(N)=O)=C(O)C(N(C)C)C4C(O)C23)cc1 (stereo not drawn) [K, [4S-(4a,12aα)]-13-(4′-ethoxyphenyl)-4-(dimethylamino)-1,4,4a,5,5a,6,11,12a-octahydro-3,5,10,12,12a-pentahydroxy-6-methylene-1,11-dioxo-2-naphthacenecarboxamide] | 6.25 | – | >50 | 0.39 | 12.5 | >50 | – | – | – | 3.12 | 0.195 | >50
